Test results reported in ChEMBL document CHEMBL2150920, “Discovery of a potent and selective small molecule hGPR91 antagonist” (Bioorg Med Chem Lett, 2011).
The source made the active and inactive calls. The rule behind the calls is not given here.

How the values were obtained:
Liver microsomes = assay: Intrinsic clearance in rat liver microsomes preincubated for 5 mins before addition of NADPH measured after 30 mins by LC/MS/MS analysis; assay type: ADME, Microsome; details: 0.5 h
Succinate receptor 1 [1] = target: T1, Succinate receptor 1 (Homo sapiens, UniProt Q9BXA5); assay: Antagonist activity at human GPR91 receptor expressed in CHO-K1 cells co-expressing Galpha and Gqi5 G-protein assessed as inhibition of succinate-induced increase in intracellular calcium level by FLIPR assay; assay type: functional, cell-based
T1 sequence (Q9BXA5 whole entry): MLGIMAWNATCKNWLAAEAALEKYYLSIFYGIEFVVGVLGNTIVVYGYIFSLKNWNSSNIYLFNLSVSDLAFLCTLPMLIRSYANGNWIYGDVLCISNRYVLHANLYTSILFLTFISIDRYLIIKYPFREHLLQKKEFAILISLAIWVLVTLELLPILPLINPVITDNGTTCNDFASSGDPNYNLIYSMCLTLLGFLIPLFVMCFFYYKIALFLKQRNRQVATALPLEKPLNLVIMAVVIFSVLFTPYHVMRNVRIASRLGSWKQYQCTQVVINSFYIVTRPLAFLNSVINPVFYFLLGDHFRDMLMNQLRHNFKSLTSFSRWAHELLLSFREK

[2] = target: T2, Succinate receptor 1 (Homo sapiens) (UniProt Q9BXA5); assay: Antagonist activity at human GPR91 receptor expressed in CHO-K1 cells co-expressing Galpha and Gqi5 G-protein assessed as inhibition of succinate-induced increase in intracellular calcium level at 10 uM by FLIPR assay; assay type: functional, cell-based
T2 sequence (whole entry): T1 sequence (Q9BXA5 whole entry)

[3] = Cmax in Wistar rat at 5 mg/kg, iv by LC/MS/MS analysis; assay type: ADME, organism-based; set-up: dose 5 mg/kg, route intravenous; details: in vivo
[4] = Volume of distribution at steady state in Wistar rat at 5 mg/kg, iv; assay type: ADME, organism-based; set-up: dose 5 mg/kg, route intravenous; details: in vivo, read-out: Vdss
[5] = target: 2-oxoglutarate receptor 1 (Homo sapiens, UniProt Q96P68); assay: Antagonist activity at human GPR99 receptor expressed in CHO-K1 cells co-expressing Galpha and Gqi5 G-protein assessed as inhibition of succinate-induced increase in intracellular calcium level at by FLIPR assay; assay type: functional, cell-based
Chain of 2-oxoglutarate receptor 1 (Q96P68 whole entry, looked up): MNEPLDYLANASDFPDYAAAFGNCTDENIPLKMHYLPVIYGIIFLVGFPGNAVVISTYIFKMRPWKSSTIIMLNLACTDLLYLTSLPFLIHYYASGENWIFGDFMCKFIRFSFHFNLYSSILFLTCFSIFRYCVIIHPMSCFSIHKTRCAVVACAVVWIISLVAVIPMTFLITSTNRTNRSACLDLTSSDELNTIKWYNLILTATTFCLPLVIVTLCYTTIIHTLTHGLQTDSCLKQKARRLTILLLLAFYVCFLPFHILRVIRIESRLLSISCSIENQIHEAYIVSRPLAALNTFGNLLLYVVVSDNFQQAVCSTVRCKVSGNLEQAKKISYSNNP

[6] = Plasma clearance in Wistar rat at 5 mg/kg, iv; assay type: ADME, organism-based; set-up: dose 5 mg/kg, route intravenous
[7] = Terminal half life in Wistar rat at 5 mg/kg, iv; assay type: ADME, organism-based; set-up: dose 5 mg/kg, route intravenous; details: in vivo, read-out: beta t1/2 (converted)
Succinate receptor 1 [8] = target: T3, Succinate receptor 1 (Rattus norvegicus, UniProt Q6IYF9); assay: Antagonist activity at rat GPR91 receptor expressed in CHO-K1 cells co-expressing Galpha and Gqi5 G-protein assessed as inhibition of succinate-induced increase in intracellular calcium level by FLIPR assay; assay type: functional, cell-based
T3 sequence (Q6IYF9 whole entry): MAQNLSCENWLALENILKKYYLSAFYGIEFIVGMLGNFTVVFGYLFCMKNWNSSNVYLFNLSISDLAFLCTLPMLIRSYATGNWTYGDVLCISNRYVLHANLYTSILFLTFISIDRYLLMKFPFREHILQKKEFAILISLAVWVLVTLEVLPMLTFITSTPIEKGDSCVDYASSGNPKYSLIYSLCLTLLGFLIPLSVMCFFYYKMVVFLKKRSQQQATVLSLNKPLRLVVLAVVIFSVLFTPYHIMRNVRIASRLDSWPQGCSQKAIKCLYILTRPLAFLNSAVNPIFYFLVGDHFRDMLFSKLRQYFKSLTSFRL

[9] = Cmax in Wistar rat at 50 mg/kg, ip by LC/MS/MS analysis; assay type: ADME, organism-based; set-up: dose 50 mg/kg, route intraperitoneal; details: in vivo
[10] = Plasma concentration in Wistar rat plasma at 50 mg/kg, ip at 8 hrs; assay type: ADME, organism-based; set-up: dose 50 mg/kg, route intraperitoneal
[11] = Tmax in Wistar rat at 50 mg/kg, ip; assay type: ADME, organism-based; set-up: dose 50 mg/kg, route intraperitoneal; details: in vivo
[12] = AUC (0 to 8 hrs) in Wistar rat plasma at 50 mg/kg, ip; assay type: ADME, organism-based; set-up: time < 8 hr, dose 50 mg/kg, route intraperitoneal

Row | Structure (SMILES) | Intrinsic clearance (Liver microsomes) | IC50 (Succinate receptor 1 [1]) | also measured
1 | O=C(CCCc1ccc2cccnc2n1)NCc1ccc(-c2cccc(C(=O)O)c2)cc1 | 0.03 nmol/min/mg | – | inhibition [2]: inactive
2 | Fc1ccc(-c2ccc(-c3nnc(CCCc4ccc5cccnc5n4)[nH]3)cc2)cc1Cl | 0.14 nmol/min/mg | 1000 nM | –
3 | O=C(CCCc1ccc2cccnc2n1)NCc1cc(-c2ccc(F)c(Cl)c2)no1 | 0.11 nmol/min/mg | 90 nM | –
4 | O=C(CCCc1ccc2cccnc2n1)NCc1nnc(-c2ccc(F)c(C(F)(F)F)c2)o1 | – | 1000 nM | –
5 | O=C(Cc1ccc(-c2ccc3cccnc3n2)cc1)NCc1ccc(-c2ccc(F)c(Cl)c2)cc1 | 0.84 nmol/min/mg | 31 nM | –
6 | O=C(CCCc1ccc2cccnc2n1)NCc1ncc(-c2ccc(F)c(C(F)(F)F)c2)cn1 | – | 200 nM | –
7 | N#Cc1cccc(-c2ccc(CNC(=O)CCCc3ccc4cccnc4n3)cc2)c1 | 0.1 nmol/min/mg | – | inhibition [2]: inactive
8 | CCc1cccc(-c2ccc(CNC(=O)CCCc3ccc4cccnc4n3)cc2)c1 | 0.4 nmol/min/mg | 65 nM | –
9 | FC(F)(F)Oc1ccc(-c2nnc(CCCCc3ccc4cccnc4n3)o2)cc1 | – | 3000 nM | –
10 | CCOC(=O)c1cccc(-c2ccc(CNC(=O)CCCc3ccc4cccnc4n3)cc2)c1 | – | – | inhibition [2]: inactive
11 | Cc1cc(-c2ccc(CNC(=O)CCCc3ccc4cccnc4n3)cc2)ccc1Cl | – | 300 nM | –
12 | O=C(NCc1ccc(-c2ccc(F)c(C(F)(F)F)c2)cc1)C(O)(c1ccc(-c2ccc3cccnc3n2)cc1)C(F)(F)F (configuration not stated) | 0.2 nmol/min/mg | 34 nM | –
13 | CC(C)(C(=O)NCc1ccc(-c2ccc(F)c(C(F)(F)F)c2)cc1)c1ccc(-c2ccc3cccnc3n2)cc1 | 0.28 nmol/min/mg | 17 nM | –
14 | CS(=O)(=O)c1cccc(-c2ccc(CNC(=O)CCCc3ccc4cccnc4n3)cc2)c1 | 0.1 nmol/min/mg | – | inhibition [2]: inactive
15 | NC(=O)c1cccc(-c2ccc(CNC(=O)CCCc3ccc4cccnc4n3)cc2)c1 | 0.04 nmol/min/mg | – | inhibition [2]: inactive
16 | Clc1ccc(-c2nnc(CCCCc3ccc4cccnc4n3)o2)cc1 | – | > 3000 nM | –
17 | FC(F)(F)c1ccc(-c2nnc(CCCCc3ccc4cccnc4n3)o2)cc1 | 0.07 nmol/min/mg | 3000 nM | –

Row | Structure (SMILES) | Intrinsic clearance (Liver microsomes) | IC50 (Succinate receptor 1 [1]) | also measured
18 | CC(=O)Nc1cccc(-c2ccc(CNC(=O)CCCc3ccc4cccnc4n3)cc2)c1 | – | – | inhibition [2]: inactive
19 | O=C(Cc1ccc(-c2ccc3cccnc3n2)cc1)NCc1ccc(-c2ccc(F)c(C(F)(F)F)c2)cc1 | 0.28 nmol/min/mg | 75 nM | –
20 | O=C(CCCc1ccc2cccnc2n1)NCc1cnc(-c2ccc(F)c(C(F)(F)F)c2)nc1 | 0.2 nmol/min/mg | 49 nM | –
21 | O=C(CCCc1ccc2cccnc2n1)NCc1nnc(-c2ccc(F)c(C(F)(F)F)c2)s1 | – | 270 nM | –
22 | Fc1ccc(-c2nnc(CCCCc3ccc4cccnc4n3)o2)cc1OC(F)(F)F | – | 4000 nM | –
23 | O=C(CCCc1ccc2cccnc2n1)NCc1ccc(-c2cccc(OC(F)(F)F)c2)cc1 | 0.2 nmol/min/mg | 500 nM | –
24 | O=C(NCc1ccc(-c2ccccc2)cc1)c1ccc(-c2ccc3cccnc3n2)cc1 | 0.02 nmol/min/mg | – | inhibition [2]: inactive
25 | C[C@H](NC(=O)C(C)(C)c1ccc(-c2ccc3cccnc3n2)cc1)c1ccc(-c2ccc(F)c(C(F)(F)F)c2)cc1 | 0.25 nmol/min/mg | 14 nM | –
26 | O=C(CCCc1ccc2cccnc2n1)NCc1cnn(-c2ccc(F)c(C(F)(F)F)c2)c1 | 0.18 nmol/min/mg | 210 nM | –
27 | O=C(CCCc1ccc2cccnc2n1)NCc1ccc(-c2cccc(CO)c2)cc1 | 0.1 nmol/min/mg | – | inhibition [2]: inactive
28 | Fc1ccc(-c2ccc(-c3nnc(CCCc4ccc5cccnc5n4)o3)cc2)cc1Cl | 0.2 nmol/min/mg | 100 nM | –
29 | O=C(CCCc1ccc2cccnc2n1)NCc1ccc(-c2ccc(F)c(C(F)(F)F)c2)cc1 | 0.1 nmol/min/mg | 22 nM | –
30 | O=C(O)Cc1cccc(-c2ccc(CNC(=O)CCCc3ccc4cccnc4n3)cc2)c1 | – | – | inhibition [2]: inactive
31 | O=C(CCCc1ccc2cccnc2n1)NCc1ccc(-c2cccc(Cl)c2)cc1 | 0.22 nmol/min/mg | 40 nM | Cmax [3]: 82.7 µM; Cmax [9]: 17.8 µM; Vd [4]: 0.2 L/kg; concentration at 8 h [10]: 15 µM; IC50 [5]: 7000 nM; clearance [6]: 4.4 mL/min/kg; Tmax [11]: 3.3 h; AUC(0-t) at 8 h [12]: 119 µM·h; half-life [7]: 1.2 h; IC50 (Succinate receptor 1 [8]): 115 nM
32 | FC(F)(F)c1cccc(-c2ccc(-c3nnc(CCCc4ccc5cccnc5n4)o3)cc2)c1 | 0.3 nmol/min/mg | 200 nM | –
33 | C[C@H](NC(=O)C(O)c1ccc(-c2ccc3cccnc3n2)cc1)c1ccc(-c2ccc(F)c(C(F)(F)F)c2)cc1 (some centres not stated) | 0.2 nmol/min/mg | 18 nM | –
34 | Fc1ccc(-c2nnc(CCCCc3ccc4cccnc4n3)o2)cc1C(F)(F)F | 0.16 nmol/min/mg | 2000 nM | –

Continued, in another order:

Row | Intrinsic clearance (Liver microsomes) | IC50 (Succinate receptor 1 [1]) | Structure (SMILES) | also measured
35 | 0.18 nmol/min/mg | 300 nM | O=C(CCCc1ccc2cccnc2n1)NCc1nc(-c2cccc(Cl)c2)cs1 | –
36 | 0.08 nmol/min/mg | – | O=C(CCCc1ccc2cccnc2n1)NCc1ccc(-c2cccc(F)c2C(=O)O)cc1F | inhibition [2]: inactive
37 | 0.2 nmol/min/mg | 38 nM | O=C(CCCc1ccc2cccnc2n1)NCc1ccc(-c2ccc(F)c(Cl)c2)cc1 | –
38 | 0.25 nmol/min/mg | 16 nM | CC(NC(=O)CCCc1ccc2cccnc2n1)c1ccc(-c2cccc(C(F)(F)F)c2)cc1 (configuration not stated) | –
39 | 0.34 nmol/min/mg | 41 nM | O=C(CCCc1ccc2cccnc2n1)NCc1ccc(-c2cccc(C(F)(F)F)c2)cc1F | –
40 | 0.3 nmol/min/mg | 170 nM | FC(F)(F)c1ccc(-c2nnc(CCCCc3ccc4cccnc4n3)o2)cc1C(F)(F)F | –
41 | 0.17 nmol/min/mg | 16 nM | C[C@H](NC(=O)C(O)(c1ccc(-c2ccc3cccnc3n2)cc1)C(F)(F)F)c1ccc(-c2ccc(F)c(C(F)(F)F)c2)cc1 (some centres not stated) | –
42 | 0.17 nmol/min/mg | 1000 nM | O=C(CCCc1ccc2cccnc2n1)NCc1ccc(-c2ccccc2)cc1 | –
43 | 0.09 nmol/min/mg | 65 nM | O=C(CCCc1ccc2cccnc2n1)NCc1cc(-c2cccc(Cl)c2)no1 | –
44 | 0.14 nmol/min/mg | 19 nM | C[C@H](NC(=O)C(F)(F)c1ccc(-c2ccc3cccnc3n2)cc1)c1ccc(-c2ccc(F)c(C(F)(F)F)c2)cc1 | –
45 | – | 3000 nM | Clc1cccc(-c2ccc(-c3nnc(CCCc4ccc5cccnc5n4)s3)cc2)c1 | –
46 | 0.15 nmol/min/mg | 330 nM | NC(C(=O)NCc1ccc(-c2ccc(F)c(C(F)(F)F)c2)cc1)c1ccc(-c2ccc3cccnc3n2)cc1 (configuration not stated) | –
47 | 0.6 nmol/min/mg | 1000 nM | COc1cccc(-c2ccc(CNC(=O)CCCc3ccc4cccnc4n3)cc2)c1 | –
48 | – | 720 nM | O=C(CCCc1ccc2cccnc2n1)NCc1ccc(-c2ccc(F)c(C(F)(F)F)c2)nn1 | –
49 | 0.3 nmol/min/mg | 40 nM | Clc1cccc(-c2ccc(-c3nnc(CCCc4ccc5cccnc5n4)o3)cc2)c1 | Cmax [3]: 9.3 µM; Vd [4]: 1.9 L/kg; IC50 [5]: 5000 nM; clearance [6]: 51 mL/min/kg; half-life [7]: 0.9 h; IC50 (Succinate receptor 1 [8]): 67 nM
50 | 0.42 nmol/min/mg | 11 nM | C[C@H](NC(=O)CCCc1ccc2cccnc2n1)c1ccc(-c2cccc(Cl)c2)cc1 | Cmax [3]: 19 µM; Vd [4]: 0.7 L/kg; IC50 [5]: 2000 nM; clearance [6]: 14.8 mL/min/kg; half-life [7]: 0.8 h; IC50 (Succinate receptor 1 [8]): 100 nM
51 | 0.4 nmol/min/mg | 700 nM | O=C(CCCc1ccc2cccnc2n1)NCc1csc(-c2cccc(Cl)c2)n1 | –
